Patent US9186381B2, “Medicament for liver regeneration and for treatment of liver failure” (Helmholtz Zentrum Fuer Infektionsforschung GmbH, priority 2011, dated 2015)

target: T1, purified MKK4 protein (Homo sapiens, UniProt P45985); experiment: in vitro MKK4 kinase assay, phosphorylation of substrate JNK1a1 with 32P-ATP; type: biochemical; conditions: positive control, remaining activity
T1 construct: made in house
T1 sequence (P45985 1-399): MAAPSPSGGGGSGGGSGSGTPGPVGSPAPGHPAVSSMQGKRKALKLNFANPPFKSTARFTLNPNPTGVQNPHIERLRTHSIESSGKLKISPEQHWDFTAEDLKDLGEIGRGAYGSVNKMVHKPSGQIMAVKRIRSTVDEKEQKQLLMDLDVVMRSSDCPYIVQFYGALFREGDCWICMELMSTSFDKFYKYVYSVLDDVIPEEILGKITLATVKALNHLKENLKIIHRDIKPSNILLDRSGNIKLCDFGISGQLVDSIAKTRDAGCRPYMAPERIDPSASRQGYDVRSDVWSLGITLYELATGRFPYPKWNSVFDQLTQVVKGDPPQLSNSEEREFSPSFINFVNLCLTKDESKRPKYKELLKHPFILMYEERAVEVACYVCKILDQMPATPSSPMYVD
Protocol: The inhibitory effect of compounds against MKK4 was analysed in an in vitro assay using purified MKK4 protein, e.g. obtained from a cell line that was genetically manipulated to over-express MKK4 from an expression cassette containing the nucleotide sequence SEQ ID NO: 1204 as a coding sequence and affinity purification using e.g. an antibody directed against MKK4 protein.
In the assay, purified active MKK4 protein was incubated with its substrate JNK1a1 and ^32P-labelled gATP (5 μCi, approx. 10 μM), without additional active compound, with the small inhibitory compound, or with Genistein as a positive control. For the assay, kinase assay buffer (20 mM HEPES pH 7.5; 10 mM MgCl2; 1 mg/ml BSA; 1 mM Na3VO4; 1 mM DTT) was used. An inhibitory effect of the small inhibitory compound (final concentration 50 μM) was detected as a reduction of the phosphorylation activity of MKK4 protein on its substrate JNK1a1 by measuring the amount of radioactive (^32P) phosphate in JNK1a1. Phosphorylation of JNK1a1 was measured in the presence of 2 ml scintillation cocktail per sample by using a scintillation counter (Wallac, Liquid Scintillation Counter). In this assay, Genistein gave an inhibition to approx. 80% activity compared to the assay without additional active compound.

Row | SMILES | inhibition to % activity compared to the assay without additional active compound
1 | O=c1c(-c2ccc(O)cc2)coc2cc(O)cc(O)c12 [Genistein] | approx. 80%

same assay, conditions: small inhibitory compound final concentration 50 μM, 32P-gATP approx. 10 μM, value is remaining activity, read-out: Inhibition, relative activity of MKK4 compared to control (without additional compound) (%)

Row | SMILES | remaining activity at 50 µM [%]
2 | Cc1n[nH]c(C)c1CCc1cc(=O)n2nc(C)c(-c3ccc(Cl)cc3)c2[nH]1 [SYN22177890, 3-(4-chlorophenyl)-5-[2-(3,5-dimethyl-1H-pyrazol-4-yl)ethyl]-2-methyl-1H-pyrazolo[1,5-a]pyrimidin-7-one] | 56.3
3 | Cc1n[nH]c(C)c1CCc1cc(=O)n2ncc(-c3ccc(F)cc3)c2[nH]1 [SYN22174787, 5-[2-(3,5-dimethyl-1H-pyrazol-4-yl)ethyl]-3-(4-fluorophenyl)-1H-pyrazolo[1,5-a]pyrimidin-7-one] | 41.5
4 | COc1cccc(-c2nn3c(=O)cc(CCc4c(C)n[nH]c4C)[nH]c3c2C)c1 [SYN22176842, 5-[2-(3,5-dimethyl-1H-pyrazol-4-yl)ethyl]-2-(3-methoxyphenyl)-3-methyl-pyrazolo[5,1-b]pyrimidin-7-ol] | 54.9
5 | COc1nc(Oc2cccc(/C=C(\C#N)c3nn(CCO)c(N)c3C#N)c2)nc(N2CCCCC2)n1 [BAS00896568, 5-amino-3-[(Z)-1-cyano-2-[3-[(4-methoxy-6-piperidin-1-yl-1,3,5-triazin-2-yl)oxy]phenyl]ethenyl]-1-(2-hydroxyethyl)pyrazole-4-carbonitrile] | 58.4
6 | Cc1ccc(-c2cnn3c(=O)cc(CCc4c(C)n[nH]c4C)[nH]c23)cc1 [SYN22175977, 5-[2-(3,5-dimethyl-1H-pyrazol-4-yl)ethyl]-3-(4-methylphenyl)-1H-pyrazolo[1,5-a]pyrimidin-7-one] | 55.5
7 | Cc1n[nH]c(C)c1CCc1cc(O)n2ncc(C(=O)Nc3ccccc3)c2n1 [SYN22174524, 5-[2-(3,5-dimethyl-1H-pyrazol-4-yl)ethyl]-7-oxo-N-phenyl-1H-pyrazolo[1,5-a]pyrimidine-3-carboxamide] | 47.8
8 | O=[N+]([O-])c1cccc(/C=N/c2ccc3[nH]ncc3c2)c1O [BAS00697444, 2-(1H-indazol-5-yliminomethyl)-6-nitrophenolate] | 79
9 | Cc1ccc(NC(=O)c2cccc(N(C)C)c2)cc1NC(=O)c1ccc(O)cc1 [ZM 336372, 3-(Dimethylamino)-N-[3-[(4-hydroxybenzoyl)-amino]-4-methylphenyl]benzamide, reference compound] | 54.2
10 | Cn1c(O)c(C(=O)Nc2ccncc2)c(=O)c2ccccc21 [BAS00525963, 2-hydroxy-1-methyl-4-oxo-N-pyridin-4-ylquinoline-3-carboxamide] | 72.6
11 | COCc1nn2c(=O)cc(CCc3c(C)n[nH]c3C)[nH]c2c1-c1ccc(C)cc1 [SYN22176367, 5-[2-(3,5-dimethyl-1H-pyrazol-4-yl)ethyl]-2-(methoxymethyl)-3-(4-methylphenyl)-1H-pyrazolo[1,5-a]pyrimidin-7-one] | 49.9
12 | O=C(O)c1ccc2c3c(ncnc13)-c1ccccc1C2=O [BAS00368055, 7-oxobenzo[e]perimidine-4-carboxylic acid] | 66.2
13 | COCc1nn2c(=O)cc(CCc3c(C)n[nH]c3C)[nH]c2c1-c1ccc(Cl)cc1 [SYN22176267, 3-(4-chlorophenyl)-5-[2-(3,5-dimethyl-1H-pyrazol-4-yl)ethyl]-2-(methoxymethyl)-1H-pyrazolo[1,5-a]pyrimidin-7-one] | 59.1
14 | COc1ccccc1-c1nn2c(=O)cc(CCc3c(C)n[nH]c3C)[nH]c2c1C [SYN22176990, 5-[2-(3,5-dimethyl-1H-pyrazol-4-yl)ethyl]-2-(2-methoxyphenyl)-3-methyl-pyrazolo[5,1-b]pyrimidin-7-ol] | 58.2
15 | COc1cc([N+](=O)[O-])cc(/C=N/c2ccc3[nH]ncc3c2)c1O [BAS00697462, 2-(1H-indazol-5-yliminomethyl)-6-methoxy-4-nitrophenolate] | 71.1

tested on: MKK4 in the liver; experiment: inhibition of MKK4 in vivo by small inhibitors administered to mice; conditions: dosage efficient for in vivo inactivation of MKK4
Protocol: In the alternative to inhibition of MKK4 activity in liver tissue by inhibitory RNA, SP600125, myricitine, Genistein, or PD98059 were used for inactivating MKK4 in the liver. Generally, SP600125, myricitine, Genistein, or PD98059 were administered to mice at a dosage efficient for in vivo inactivation of MKK4. Preferably, the dosage was efficient to inactivate at least 80%, more preferably at least 90 or 95% of mean in vivo MKK4 activity.

Row | SMILES | liver regeneration | proliferation | protection against induced apoptosis
16 | COc1cccc(-c2cc(=O)c3ccccc3o2)c1N [PD98059] | significant increase in liver regeneration | increase in proliferation | protection against induced apoptosis
17 | O=c1c(O)c(-c2cc(O)c(O)c(O)c2)oc2cc(O)cc(O)c12 [myricitine] | significant increase in liver regeneration | increase in proliferation | protection against induced apoptosis
18 | O=c1c(-c2ccc(O)cc2)coc2cc(O)cc(O)c12 [Genistein] | significant increase in liver regeneration | increase in proliferation | protection against induced apoptosis
